{
  "source": "patent US20050228016A1",
  "about": "“TETRAHYDROQUINOLINES FOR MODULATING THE EXPRESSION OF EXOGENOUS GENES VIA AN ECDYSONE RECEPTOR COMPLEX” (priority 2002, published 2005)",
  "data": [
    {"target": "T1, Gal4DBD/AaEcR (DEF) (Aedes aegypti, UniProt P49880)", "T1 construct": "The wildtype D, E, and F domains from mosquito Aedes aegypti EcR; expressed in transfected cells; host or cells: 3T3 cells", "T1 sequence (P28704 286-520 A311G/G315S/G445S/I449V)": "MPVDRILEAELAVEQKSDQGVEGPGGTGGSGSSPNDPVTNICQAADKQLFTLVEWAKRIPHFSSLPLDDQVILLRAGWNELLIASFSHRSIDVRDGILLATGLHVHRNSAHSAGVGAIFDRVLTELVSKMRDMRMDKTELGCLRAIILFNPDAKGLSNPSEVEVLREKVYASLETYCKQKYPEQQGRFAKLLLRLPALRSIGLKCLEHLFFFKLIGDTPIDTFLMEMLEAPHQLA", "T1 sequence (P49880 405-776)": "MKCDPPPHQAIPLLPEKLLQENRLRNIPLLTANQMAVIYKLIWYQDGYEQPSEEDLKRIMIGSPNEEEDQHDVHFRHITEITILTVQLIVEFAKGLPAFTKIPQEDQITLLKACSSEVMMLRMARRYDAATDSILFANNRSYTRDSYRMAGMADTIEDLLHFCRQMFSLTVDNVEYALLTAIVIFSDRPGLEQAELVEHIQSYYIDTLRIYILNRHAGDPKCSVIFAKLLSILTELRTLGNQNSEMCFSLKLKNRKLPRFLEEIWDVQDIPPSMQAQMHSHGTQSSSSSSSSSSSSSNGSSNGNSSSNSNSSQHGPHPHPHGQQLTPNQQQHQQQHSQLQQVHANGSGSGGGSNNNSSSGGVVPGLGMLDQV", "test": "cell-based", "format": "cell-based", "conditions": "33 μM; 3T3 cells; 48 h; average of two wells", "experimental": "(§1) 3T3 cells were trypsinized and plated at 2.5×10^3 cells/well on a 96-well plate. After incubation for 24 h at 37° C. under 5% CO2, cells were transfected with the Gal4DBD/AaEcR (DEF) gene expression cassette and the reporter plasmid, pFRLuc, containing a 5× GAL4 response element and the firefly luciferase gene in serum free media using Superfect (Qiagen). After transfection for 4 h at 37° C., the cells were treated with ligand in serum media. […] Single dose testing was performed at 33 μM.", "units": {"Fold Induction Average, AA_3T3V1 Assay 33 μM": "fold"}, "values": [
      {"smiles": "Cc1ccc(C(=O)N2c3ccccc3C(Nc3cccc(C)c3)CC2C)cc1", "note": "(mixture of isomers) [Compound I-44]", "Fold Induction Average, AA_3T3V1 Assay 33 μM": 26},
      {"smiles": "COc1cccc(NC2CC(C)N(C(=O)c3ccc(C)cc3)c3ccccc32)c1", "note": "(mixture of isomers) [Compound I-46]", "Fold Induction Average, AA_3T3V1 Assay 33 μM": 8},
      {"smiles": "Cc1ccc(C(=O)N2c3cc(Cl)ccc3C(Nc3ccc(F)cc3)CC2C)cc1F", "note": "(mixture of isomers) [Compound I-48]", "Fold Induction Average, AA_3T3V1 Assay 33 μM": 19},
      {"smiles": "CCCCCCCC(=O)N1c2ccccc2[C@@H](Nc2ccccc2)C[C@@H]1C", "note": "(relative stereo) [Compound I-2]", "Fold Induction Average, AA_3T3V1 Assay 33 μM": 49},
      {"smiles": "CCCCC(=O)N1c2ccccc2[C@@H](Nc2ccccc2)C[C@@H]1C", "note": "(relative stereo) [Compound I-3]", "Fold Induction Average, AA_3T3V1 Assay 33 μM": 252},
      {"smiles": "C[C@H]1C[C@@H](Nc2ccccc2)c2ccccc2N1C(=O)c1ccc(F)c(F)c1", "note": "(relative stereo) [Compound I-18]", "Fold Induction Average, AA_3T3V1 Assay 33 μM": 83},
      {"smiles": "C[C@H]1C[C@@H](Nc2ccccc2)c2ccccc2N1C(=O)c1ccc(C(F)(F)F)c(F)c1", "note": "(relative stereo) [Compound I-20]", "Fold Induction Average, AA_3T3V1 Assay 33 μM": 47},
      {"smiles": "C[C@H]1C[C@@H](Nc2ccccc2)c2ccccc2N1C(=O)c1ccc(Cl)cc1", "note": "(relative stereo) [Compound I-29]", "Fold Induction Average, AA_3T3V1 Assay 33 μM": 61},
      {"smiles": "COC(=O)c1ccc(C(=O)N2c3ccccc3[C@H](Nc3ccccc3)C[C@@H]2C)cc1", "note": "(relative stereo) [Compound I-30]", "Fold Induction Average, AA_3T3V1 Assay 33 μM": 9},
      {"smiles": "CCCCCCCCC(=O)N1c2ccccc2[C@@H](Nc2ccccc2)C[C@@H]1C", "note": "(relative stereo) [Compound I-127]", "Fold Induction Average, AA_3T3V1 Assay 33 μM": 22},
      {"smiles": "Cc1ccc(N[C@H]2C[C@H](C)N(C(=O)Nc3cccc(Cl)c3)c3ccc(C)cc32)cc1", "note": "(relative stereo) [Compound I-218]", "Fold Induction Average, AA_3T3V1 Assay 33 μM": 6},
      {"smiles": "Cc1ccc(NC(=O)N2c3ccc(C)cc3[C@@H](Nc3ccc(C)cc3)C[C@@H]2C)cc1", "note": "(relative stereo) [Compound I-219]", "Fold Induction Average, AA_3T3V1 Assay 33 μM": 3},
      {"smiles": "C[C@H]1C[C@H](Nc2ccc(F)cc2)c2cc(F)ccc2N1C(=O)Nc1ccccc1", "note": "(relative stereo) [Compound I-221]", "Fold Induction Average, AA_3T3V1 Assay 33 μM": 1027},
      {"smiles": "C[C@H]1C[C@H](Nc2ccc(F)cc2)c2cc(F)ccc2N1C(=O)Nc1ccc(Cl)cc1", "note": "(relative stereo) [Compound I-222]", "Fold Induction Average, AA_3T3V1 Assay 33 μM": 939},
      {"smiles": "C[C@H]1C[C@H](Nc2ccc(F)cc2)c2cc(F)ccc2N1C(=O)Nc1cccc(Cl)c1", "note": "(relative stereo) [Compound I-223]", "Fold Induction Average, AA_3T3V1 Assay 33 μM": 1414},
      {"smiles": "Cc1ccc(NC(=O)N2c3ccc(F)cc3[C@@H](Nc3ccc(F)cc3)C[C@@H]2C)cc1", "note": "(relative stereo) [Compound I-224]", "Fold Induction Average, AA_3T3V1 Assay 33 μM": 1245},
      {"smiles": "Cc1cccc(NC(=O)N2c3ccc(F)cc3[C@@H](Nc3ccc(F)cc3)C[C@@H]2C)c1", "note": "(relative stereo) [Compound I-225]", "Fold Induction Average, AA_3T3V1 Assay 33 μM": 1561},
      {"smiles": "Cc1ccc(NC2CC(C)N(C(=O)c3ccc(Cl)cc3)c3ccc(C)cc32)cc1", "note": "(centres unmarked) [Compound I-32]", "Fold Induction Average, AA_3T3V1 Assay 33 μM": 1},
      {"smiles": "Cc1ccc(NC2CC(C)N(C(=O)c3ccc(C(F)(F)F)c(F)c3)c3ccc(C)cc32)cc1", "note": "(centres unmarked) [Compound I-49]", "Fold Induction Average, AA_3T3V1 Assay 33 μM": 3},
      {"smiles": "Cc1ccc(NC2CC(C)N(C(=O)c3ccccc3F)c3ccc(C)cc32)cc1", "note": "(centres unmarked) [Compound I-51]", "Fold Induction Average, AA_3T3V1 Assay 33 μM": 4},
      {"smiles": "Cc1ccc(NC2CC(C)N(C(=O)c3ccccc3C)c3ccc(C)cc32)cc1", "note": "(centres unmarked) [Compound I-52]", "Fold Induction Average, AA_3T3V1 Assay 33 μM": 19},
      {"smiles": "CCc1ccc(C(=O)N2c3ccccc3C(Nc3ccccc3)CC2C)cc1", "note": "(centres unmarked) [Compound I-59]", "Fold Induction Average, AA_3T3V1 Assay 33 μM": 4},
      {"smiles": "Cc1ccc(NC2CC(C)N(C(=O)c3ccc(C)cc3)c3ccc(C)cc32)cc1", "note": "(centres unmarked) [Compound I-99]", "Fold Induction Average, AA_3T3V1 Assay 33 μM": 2},
      {"smiles": "Cc1ccc(NC2CC(C)N(C(=O)c3ccccc3)c3ccc(C)cc32)cc1", "note": "(centres unmarked) [Compound I-100]", "Fold Induction Average, AA_3T3V1 Assay 33 μM": 2},
      {"smiles": "CCc1c(OC)cccc1C(=O)N1c2ccc(C)cc2C(Nc2ccc(C)cc2)CC1C", "note": "(centres unmarked) [Compound I-112]", "Fold Induction Average, AA_3T3V1 Assay 33 μM": 194},
      {"smiles": "CC1CC(Nc2ccc(F)cc2)c2cc(F)ccc2N1C(=O)c1ccno1", "note": "(centres unmarked) [Compound I-114]", "Fold Induction Average, AA_3T3V1 Assay 33 μM": 1421},
      {"smiles": "CC1CC(Nc2ccc(F)cc2)c2cc(F)ccc2N1C(=O)c1ccc(Cl)c(F)c1", "note": "(centres unmarked) [Compound I-115]", "Fold Induction Average, AA_3T3V1 Assay 33 μM": 643},
      {"smiles": "CC1CC(Nc2ccc(F)cc2)c2cc(F)ccc2N1C(=O)c1ccnc(Cl)c1", "note": "(centres unmarked) [Compound I-116]", "Fold Induction Average, AA_3T3V1 Assay 33 μM": 1100},
      {"smiles": "CCc1c(OC)cccc1C(=O)N1c2ccc(F)cc2C(Nc2ccc(F)cc2)CC1C", "note": "(centres unmarked) [Compound I-117]", "Fold Induction Average, AA_3T3V1 Assay 33 μM": 1256},
      {"smiles": "CC1CC(Nc2ccccc2)c2ccccc2N1C(=O)C=Cc1ccco1", "note": "(centres unmarked) [Compound I-121]", "Fold Induction Average, AA_3T3V1 Assay 33 μM": 81},
      {"smiles": "CC1CC(Nc2ccccc2)c2ccccc2N1C(=O)c1cccs1", "note": "(centres unmarked) [Compound I-122]", "Fold Induction Average, AA_3T3V1 Assay 33 μM": 5},
      {"smiles": "CC(=O)N(c1ccccc1)C1CC(C)N(C(=O)c2ccc(C(C)(C)C)cc2)c2ccccc21", "note": "(centres unmarked) [Compound I-123]", "Fold Induction Average, AA_3T3V1 Assay 33 μM": 1},
      {"smiles": "CC(=O)N1c2ccccc2C(N(C(=O)c2ccc(F)cc2)c2ccccc2)CC1C", "note": "(centres unmarked) [Compound I-128]", "Fold Induction Average, AA_3T3V1 Assay 33 μM": 1},
      {"smiles": "CC1CC(Nc2ccccc2)c2ccccc2N1C(=O)COc1ccccc1Cl", "note": "(centres unmarked) [Compound I-129]", "Fold Induction Average, AA_3T3V1 Assay 33 μM": 1},
      {"smiles": "CC1CC(Nc2ccccc2)c2ccccc2N1C(=O)Cc1ccccc1", "note": "(centres unmarked) [Compound I-130]", "Fold Induction Average, AA_3T3V1 Assay 33 μM": 1},
      {"smiles": "CC(=O)N1c2ccccc2C(N(C(=O)c2ccc(C)cc2)c2ccccc2)CC1C", "note": "(centres unmarked) [Compound I-132]", "Fold Induction Average, AA_3T3V1 Assay 33 μM": 1},
      {"smiles": "CCCCCC(=O)N(c1ccccc1)C1CC(C)N(C(=O)c2cccc(OC)c2)c2ccccc21", "note": "(centres unmarked) [Compound I-133]", "Fold Induction Average, AA_3T3V1 Assay 33 μM": 1},
      {"smiles": "CC1CC(N(C(=O)c2cccc(F)c2)c2ccccc2)c2ccccc2N1C(=O)c1cccc(F)c1", "note": "(centres unmarked) [Compound I-136]", "Fold Induction Average, AA_3T3V1 Assay 33 μM": 1},
      {"smiles": "CC1CC(Nc2ccccc2)c2ccccc2N1C(=O)c1ccco1", "note": "(centres unmarked) [Compound I-139]", "Fold Induction Average, AA_3T3V1 Assay 33 μM": 1},
      {"smiles": "CCOC(=O)C(=O)N1c2ccccc2C(N(C(=O)C(=O)OCC)c2ccccc2)CC1C", "note": "(centres unmarked) [Compound I-145]", "Fold Induction Average, AA_3T3V1 Assay 33 μM": 47},
      {"smiles": "COc1ccc(C=CC(=O)N2c3ccccc3C(N(C(C)=O)c3ccccc3)CC2C)cc1", "note": "(centres unmarked) [Compound I-150]", "Fold Induction Average, AA_3T3V1 Assay 33 μM": 1},
      {"smiles": "COc1ccc(C(=O)N2c3ccccc3C(N(C(=O)c3ccc(OC)cc3)c3ccccc3)CC2C)cc1", "note": "(centres unmarked) [Compound I-153]", "Fold Induction Average, AA_3T3V1 Assay 33 μM": 1},
      {"smiles": "CCCc1ccc(C(=O)N2c3c(C)cccc3C(Nc3ccccc3C)CC2C)cc1", "note": "(centres unmarked) [Compound I-157]", "Fold Induction Average, AA_3T3V1 Assay 33 μM": 1},
      {"smiles": "Cc1cccc(C(=O)N2c3ccccc3C(N(C(=O)c3cccc(C)c3)c3ccccc3)CC2C)c1", "note": "(centres unmarked) [Compound I-164]", "Fold Induction Average, AA_3T3V1 Assay 33 μM": 1},
      {"smiles": "CC1CC(Nc2ccccc2)c2ccccc2N1C(=O)CN1C(=O)CCC1=O", "note": "(centres unmarked) [Compound I-167]", "Fold Induction Average, AA_3T3V1 Assay 33 μM": 1},
      {"smiles": "Cc1ccc(NC2CC(C)N(C(=O)c3cccc(F)c3)c3ccc(C)cc32)cc1", "note": "(centres unmarked) [Compound I-174]", "Fold Induction Average, AA_3T3V1 Assay 33 μM": 1},
      {"smiles": "CC1CC(Nc2ccccc2)c2ccccc2N1C(=O)Nc1ccccc1", "note": "(centres unmarked) [Compound I-176]", "Fold Induction Average, AA_3T3V1 Assay 33 μM": 268},
      {"smiles": "COc1ccc(C=CC(=O)N2c3ccccc3C(Nc3ccccc3)CC2C)cc1", "note": "(centres unmarked) [Compound I-177]", "Fold Induction Average, AA_3T3V1 Assay 33 μM": 126},
      {"smiles": "CC1CC(N(C(=O)C(F)(F)F)c2ccccc2)c2ccccc2N1C(=O)C(F)(F)F", "note": "(centres unmarked) [Compound I-182]", "Fold Induction Average, AA_3T3V1 Assay 33 μM": 1},
      {"smiles": "CCCCCC(=O)N1c2ccccc2C(N(C(=O)c2ccccc2F)c2ccccc2)CC1C", "note": "(centres unmarked) [Compound I-186]", "Fold Induction Average, AA_3T3V1 Assay 33 μM": 1},
      {"smiles": "Cc1ccc(C(=O)N2c3c(C)cccc3C(Nc3ccccc3C)CC2C)cc1", "note": "(centres unmarked) [Compound I-187]", "Fold Induction Average, AA_3T3V1 Assay 33 μM": 1},
      {"smiles": "CC(=O)N(c1ccc(F)cc1)C1CC(C)N(C(=O)c2ccc(C)c(F)c2)c2ccc(F)cc21", "note": "(centres unmarked) [Compound I-195]", "Fold Induction Average, AA_3T3V1 Assay 33 μM": 1},
      {"smiles": "Cc1cccc(C(=O)N2c3ccccc3C(Nc3ccccc3)CC2C)c1", "note": "(centres unmarked) [Compound I-198]", "Fold Induction Average, AA_3T3V1 Assay 33 μM": 135},
      {"smiles": "CC1CC(Nc2ccccc2)c2ccccc2N1C(=O)c1cccc(F)c1", "note": "(centres unmarked) [Compound I-199]", "Fold Induction Average, AA_3T3V1 Assay 33 μM": 147},
      {"smiles": "COc1cccc(C(=O)N2c3ccccc3C(Nc3ccccc3)CC2C)c1", "note": "(centres unmarked) [Compound I-200]", "Fold Induction Average, AA_3T3V1 Assay 33 μM": 212}
    ]},
    {"target": "T1, Gal4DBD/AaEcR (DEF)", "test": "cell-based", "format": "cell-based", "conditions": "NIH3T3, read-out: Fold Induction Average, AA_3T3V1 Assay 33 μM", "experimental": "as §1", "values": [
      {"smiles": "Cc1ccc(NC(=O)N2c3ccccc3[C@@H](Nc3ccccc3)C[C@H]2C)cc1", "note": "(relative stereo) [Compound I-214, cis-2-methyl-1-(4-methylphenylaminocarbonyl)-4-(4-phenylamino)-1,2,3,4-tetrahydroquinoline]", "fold induction at 33 µM": 820}
    ]}
  ]
}
